Assays:
Format in all cases: functional
OVCAR-4 [1] = test: Growth inhibition of human OVCAR4 cells assessed as cell growth at 5X10'-6 M after 48 hrs by sulforhodamine B assay; settings: OVCAR-4, 48 h, read-out: Activity
UO-31 = test: Growth inhibition of human UO31 cells assessed as cell growth at 5X10'-6 M after 48 hrs by sulforhodamine B assay; settings: UO-31, 48 h, read-out: Activity
TK-10 [2] = test: Growth inhibition of human TK10 cells assessed as cell growth at 3X10'-5 M after 48 hrs by sulforhodamine B assay; settings: TK-10, 48 h, read-out: Activity
Malme-3M = test: Growth inhibition of human MALME-3M cells assessed as cell growth at 3X10'-9 M after 48 hrs by sulforhodamine B assay; settings: read-out: Activity
OVCAR-4 [3] = test: Growth inhibition of human OVCAR4 cells assessed as cell growth at 3X10'-7 M after 48 hrs by sulforhodamine B assay; settings: OVCAR-4, 48 h, read-out: Activity
SN12C = test: Growth inhibition of human SN12C cells assessed as cell growth at 3X10'-6 M after 48 hrs by sulforhodamine B assay; settings: read-out: Activity
NCI-H522 [4] = test: Growth inhibition of human NCI-H522 cells assessed as cell growth at 3X10'-6 M after 48 hrs by sulforhodamine B assay; settings: NCI-H522, 48 h, read-out: Activity
SNB-19 [5] = test: Growth inhibition of human SNB19 cells assessed as cell growth at 3X10'-9 M after 48 hrs by sulforhodamine B assay; settings: SNB-19, 48 h, read-out: Activity
COLO 205 [6] = test: Growth inhibition of human COLO205 cells assessed as cell growth at 3X10'-5 M after 48 hrs by sulforhodamine B assay; settings: COLO 205, 48 h, read-out: Activity
A498 = test: Growth inhibition of human A498 cells assessed as cell growth at 3X10'-5 M after 48 hrs by sulforhodamine B assay; settings: A498, 48 h, read-out: Activity
M14 = test: Growth inhibition of human M14 cells assessed as cell growth at 3X10'-9 M after 48 hrs by sulforhodamine B assay; settings: M14, 48 h, read-out: Activity
HL-60(TB) [7] = test: Growth inhibition of human HL-60(TB) cells assessed as cell growth at 3X10'-7 M after 48 hrs by sulforhodamine B assay; settings: HL-60, 48 h, read-out: Activity
PC-3 = test: Growth inhibition of human PC3 cells assessed as cell growth at 3X10'-8 M after 48 hrs by sulforhodamine B assay; settings: PC-3, 48 h, read-out: Activity
[8] = Growth inhibition of human Hs 578T cells assessed as cell growth at 3X10'-9 M after 48 hrs by sulforhodamine B assay; settings: read-out: Activity
KM12 = test: Growth inhibition of human KM12 cells assessed as cell growth at 3X10'-5 M after 48 hrs by sulforhodamine B assay; settings: KM12, 48 h, read-out: Activity
RPMI-8226 = test: Growth inhibition of human RPMI8226 cells assessed as cell growth at 3X10'-5 M after 48 hrs by sulforhodamine B assay; settings: RPMI-8226, 48 h, read-out: Activity
OVCAR-4 [9] = test: Growth inhibition of human OVCAR4 cells assessed as cell growth at 3X10'-8 M after 48 hrs by sulforhodamine B assay; settings: OVCAR-4, 48 h, read-out: Activity
UACC-257 = test: Growth inhibition of human UACC257 cells assessed as cell growth at 3X10'-6 M after 48 hrs by sulforhodamine B assay; settings: UACC-257, 48 h, read-out: Activity
NCI-H322M = test: Growth inhibition of human NCI-H322M cells assessed as cell growth at 3X10'-5 M after 48 hrs by sulforhodamine B assay; settings: read-out: Activity
RXF 393 = test: Growth inhibition of human RXF393 cells assessed as cell growth at 3X10'-9 M after 48 hrs by sulforhodamine B assay; settings: RXF 393, 48 h, read-out: Activity
SF-539 [10] = test: Growth inhibition of human SF539 cells assessed as cell growth at 3X10'-7 M after 48 hrs by sulforhodamine B assay; settings: SF-539, 48 h, read-out: Activity
NCI-H522 [11] = test: Growth inhibition of human NCI-H522 cells assessed as cell growth at 3X10'-5 M after 48 hrs by sulforhodamine B assay; settings: NCI-H522, 48 h, read-out: Activity
MCF7 = test: Growth inhibition of human MCF7 cells assessed as cell growth at 3X10'-6 M after 48 hrs by sulforhodamine B assay; settings: MCF7, 48 h, read-out: Activity
OVCAR-3 [12] = test: Growth inhibition of human OVCAR3 cells assessed as cell growth at 3X10'-7 M after 48 hrs by sulforhodamine B assay; settings: OVCAR-3, 48 h, read-out: Activity
SW-620 = test: Growth inhibition of human SW620 cells assessed as cell growth at 3X10'-6 M after 48 hrs by sulforhodamine B assay; settings: SW-620, 48 h, read-out: Activity
HOP-62 = test: Growth inhibition of human HOP62 cells assessed as cell growth at 3X10'-6 M after 48 hrs by sulforhodamine B assay; settings: HOP-62, 48 h, read-out: Activity
COLO 205 [13] = test: Growth inhibition of human COLO205 cells assessed as cell growth at 3X10'-6 M after 48 hrs by sulforhodamine B assay; settings: COLO 205, 48 h, read-out: Activity
SF-539 [14] = test: Growth inhibition of human SF539 cells assessed as cell growth at 3X10'-6 M after 48 hrs by sulforhodamine B assay; settings: SF-539, 48 h, read-out: Activity
OVCAR-4 [15] = test: Growth inhibition of human OVCAR4 cells assessed as cell growth at 3X10'-6 M after 48 hrs by sulforhodamine B assay; settings: OVCAR-4, 48 h, read-out: Activity
SNB-19 [16] = test: Growth inhibition of human SNB19 cells assessed as cell growth at 3X10'-7 M after 48 hrs by sulforhodamine B assay; settings: SNB-19, 48 h, read-out: Activity
HL-60(TB) [17] = test: Growth inhibition of human HL-60(TB) cells assessed as cell growth at 3X10'-6 M after 48 hrs by sulforhodamine B assay; settings: HL-60, 48 h, read-out: Activity
SR = test: Growth inhibition of human SR cells assessed as cell growth at 3X10'-5 M after 48 hrs by sulforhodamine B assay; settings: read-out: Activity
K562 = test: Growth inhibition of human K562 cells assessed as cell growth at 3X10'-7 M after 48 hrs by sulforhodamine B assay; settings: K562, 48 h, read-out: Activity
SK-MEL-2 = test: Growth inhibition of human SK-MEL-2 cells assessed as cell growth at 3X10'-5 M after 48 hrs by sulforhodamine B assay; settings: SK-MEL-2, 48 h, read-out: Activity
OVCAR-3 [18] = test: Growth inhibition of human OVCAR3 cells assessed as cell growth at 3X10'-9 M after 48 hrs by sulforhodamine B assay; settings: OVCAR-3, 48 h, read-out: Activity
LOX IMVI = test: Growth inhibition of human LOXIMVI cells assessed as cell growth at 3X10'-8 M after 48 hrs by sulforhodamine B assay; settings: read-out: Activity
TK-10 [19] = test: Growth inhibition of human TK10 cells assessed as cell growth at 3X10'-9 M after 48 hrs by sulforhodamine B assay; settings: TK-10, 48 h, read-out: Activity
NCI-H23 = test: Growth inhibition of human NCI-H23 cells assessed as cell growth at 3X10'-7 M after 48 hrs by sulforhodamine B assay; settings: NCI-H23, 48 h, read-out: Activity

| SMILES | growth at 5 µM (OVCAR-4 [1]) | growth at 5 µM (UO-31) | growth at 0.003 µM (Malme-3M) | growth at 0.3 µM (OVCAR-4 [3]) | growth at 3 µM (SN12C) | growth at 3 µM (NCI-H522 [4]) | growth at 0.003 µM (SNB-19 [5]) | growth at 30 µM (COLO 205 [6]) | growth at 30 µM (A498) | growth at 0.003 µM (M14) | growth at 0.03 µM (PC-3) | growth at 0.003 µM [8] | growth at 30 µM (KM12) | growth at 30 µM (RPMI-8226) | growth at 0.03 µM (OVCAR-4 [9]) | growth at 3 µM (UACC-257) | growth at 30 µM (NCI-H322M) | growth at 0.003 µM (RXF 393) | growth at 0.3 µM (SF-539 [10]) | growth at 30 µM (NCI-H522 [11]) | other results |
| --- | --- | --- | --- | --- | --- | --- | --- | --- | --- | --- | --- | --- | --- | --- | --- | --- | --- | --- | --- | --- | --- |
| COc1cc(-c2nn(-c3cccc(NC(=O)Nc4cc(C(F)(F)F)cc(C(F)(F)F)c4)c3)cc2-c2ccncc2)ccc1Cl | 8% | -90% |  |  |  |  |  |  |  |  |  |  |  |  |  |  |  |  |  |  |  |
| COc1cc(-c2nn(-c3cccc(NC(=O)Nc4ccc(Cl)c(C(F)(F)F)c4)c3)cc2-c2ccncc2)ccc1Cl |  |  | 112% | 96% | 16% | 8% | 95% | -94% | -25% | 106% | 95% | 90% | -79% | -7% | 96% | 20% | -17% | 98% | 91% | -21% | growth at 30 µM (TK-10 [2]): -15%; growth at 0.3 µM (HL-60(TB) [7]): 110%; growth at 3 µM (MCF7): 5%; growth at 0.3 µM (OVCAR-3 [12]): 100%; growth at 3 µM (SW-620): 17%; growth at 3 µM (HOP-62): 22%; growth at 3 µM (COLO 205 [13]): -49%; growth at 3 µM (SF-539 [14]): 33%; growth at 3 µM (OVCAR-4 [15]): 19%; growth at 0.3 µM (SNB-19 [16]): 94%; growth at 3 µM (HL-60(TB) [17]): 2%; growth at 30 µM (SR): -12%; growth at 0.3 µM (K562): 100%; growth at 30 µM (SK-MEL-2): -64%; growth at 0.003 µM (OVCAR-3 [18]): 105%; growth at 0.03 µM (LOX IMVI): 100%; growth at 0.003 µM (TK-10 [19]): 101%; growth at 0.3 µM (NCI-H23): 97% |
| O=C(Nc1cccc(-n2cc(-c3ccncc3)c(-c3ccc(Cl)c(O)c3)n2)c1)Nc1cc(C(F)(F)F)cc(C(F)(F)F)c1 |  | -45% |  |  |  |  |  |  |  |  |  |  |  |  |  |  |  |  |  |  |  |
| O=C(Nc1cccc(-n2cc(-c3ccncc3)c(-c3ccc(Cl)c(O)c3)n2)c1)Nc1ccc(Cl)c(Cl)c1 |  |  | 92% | 105% | 17% | 14% | 98% | -70% | -26% | 93% | 98% | 89% | -56% | 3% | 102% | -1% | 11% | 96% | 87% | -13% | growth at 3 µM (MCF7): 8%; growth at 0.3 µM (OVCAR-3 [12]): 103%; growth at 3 µM (SW-620): 23%; growth at 3 µM (HOP-62): 35%; growth at 3 µM (COLO 205 [13]): 61%; growth at 3 µM (SF-539 [14]): 27%; growth at 3 µM (OVCAR-4 [15]): 28%; growth at 0.3 µM (SNB-19 [16]): 101%; growth at 3 µM (HL-60(TB) [17]): 16%; growth at 30 µM (SR): -5%; growth at 0.3 µM (K562): 110%; growth at 30 µM (SK-MEL-2): -50%; growth at 0.003 µM (OVCAR-3 [18]): 96%; growth at 0.03 µM (LOX IMVI): 91%; growth at 0.003 µM (TK-10 [19]): 96%; growth at 0.3 µM (NCI-H23): 102% |
| COc1cc(-c2nn(-c3cccc(NC(=O)Nc4ccc(Cl)c(Cl)c4)c3)cc2-c2ccncc2)ccc1Cl | 6% |  |  |  |  |  |  |  |  |  |  |  |  |  |  |  |  |  |  |  |  |
| COc1cc(-c2nn(-c3cccc(NC(=O)c4cccc(C(F)(F)F)c4)c3)cc2-c2ccncc2)ccc1Cl | 34% | 20% |  |  |  |  |  |  |  |  |  |  |  |  |  |  |  |  |  |  |  |
| COc1cc(-c2nn(-c3cccc(NC(=O)Nc4cccc(C(F)(F)F)c4)c3)cc2-c2ccncc2)ccc1Cl | 6% | -15% |  |  |  |  |  |  |  |  |  |  |  |  |  |  |  |  |  |  |  |
| O=C(Nc1cccc(-n2cc(-c3ccncc3)c(-c3ccc(Cl)c(O)c3)n2)c1)Nc1cccc(C(F)(F)F)c1 |  |  | 96% | 108% | 37% | 25% | 94% | -14% | 15% | 97% | 96% | 93% | 1% | 5% | 107% | 60% | 19% | 96% | 92% | -13% | growth at 30 µM (TK-10 [2]): 7%; growth at 3 µM (MCF7): 26%; growth at 0.3 µM (OVCAR-3 [12]): 92%; growth at 3 µM (SW-620): 53%; growth at 3 µM (HOP-62): 70%; growth at 3 µM (COLO 205 [13]): 90%; growth at 3 µM (SF-539 [14]): 54%; growth at 3 µM (OVCAR-4 [15]): 49%; growth at 0.3 µM (SNB-19 [16]): 96%; growth at 3 µM (HL-60(TB) [17]): 41%; growth at 30 µM (SR): -9%; growth at 0.3 µM (K562): 101%; growth at 30 µM (SK-MEL-2): -32%; growth at 0.003 µM (OVCAR-3 [18]): 96%; growth at 0.03 µM (LOX IMVI): 95%; growth at 0.003 µM (TK-10 [19]): 94%; growth at 0.3 µM (NCI-H23): 96% |
| O=C(Nc1cccc(-n2cc(-c3ccncc3)c(-c3ccc(Cl)c(O)c3)n2)c1)c1ccc(N2CCOCC2)c(C(F)(F)F)c1 | 80% | 25% |  |  |  |  |  |  |  |  |  |  |  |  |  |  |  |  |  |  |  |

Source: ChEMBL document CHEMBL2440076, “New triarylpyrazoles as broad-spectrum anticancer agents: design, synthesis, and biological evaluation” (Eur J Med Chem, 2013)
